Reference: US12582670B2, “Lignin solvation using aqueous biologically compatible buffers” (priority 2019, dated 2026)
“Also recorded” adds a separate entry of the source.

Key:
[1] = tested on: S. aureus LAC-13C (methicillin-resistant, MRSA); experiment: β-lactam disk diffusion susceptibility test; format: cell-based, Staphylococcus aureus; conditions: disks 1 μg oxacillin, 10 μg ampicillin, 10 μg penicillin, 24 h
Method: (§1) Example 9. β-lactam disk diffusion susceptibility test. […] Methicillin-susceptible and methicillin-resistant S. aureus, UAMS-1 and LAC-13C, respectively, were streaked for isolation on tryptic soy agar (TSA) plates and incubated for 24 hours at 37° C. Overnight cultures were prepared by picking a single colony of each strain from its plate and adding to separate 3 mL sterile tryptic soy broth (TSB) in a 5 mL culture tube and incubating 14-16 h at 37° C. and 250 rpm. Next, the optical density at 600 nm (OD600) was measured to prepare fresh 50 mL cultures with OD600=0.1 to be grown for 2-3 hours at 37° C. and 250 rpm. Cultures were pelleted by centrifugation at 4500 rpm, then resuspended and concentrated in 500 μL sterile 1× Hank's Balanced Salt Solution (HBSS). […] To achieve lawn-style growth, cells were spread across the plates with sterile glass beads.

[2] = tested on: S. aureus UAMS-1 (methicillin-sensitive, MSSA); experiment: β-lactam disk diffusion susceptibility test; format: cell-based, Staphylococcus aureus; conditions: disks 0.2 μg oxacillin, 2 μg ampicillin, 2 μg penicillin, 24 h
Method: as §1

[3] = tested on: S. agalactiae (NCTC 8181); experiment: β-lactam disk diffusion susceptibility test with and without lignin; format: cell-based, Streptococcus agalactiae; conditions: disks 10 μg penicillin, 10 μg ampicillin, 30 μg amoxicillin+clavulanic acid, 24 h
Method: (§2) Example 13. Sensitivity of S. agalactiae and S. uberis to β-lactams and lignin. Type strains of S. agalactiae and S. uberis Diemhofer (NCTC 8181 and NCTC 3858, respectively) were obtained from the American Type Culture Collection (ATCC) as lyophilized pellets. Cells were revived by resuspension in 5 mL Todd Hewitt broth (THB, 3% w/v) and static incubation for 24 h at 37° C. Culture OD600 was measured and the volume to achieve OD600=0.025 was added to 50 mL fresh THB in 250 mL Erlenmeyer flasks and grown for 2 hours; S. agalactiae cultures were supplemented with 1 μM hemin and 10 μM menaquinone and grown at 37° C. and 200 rpm, while S. uberis was grown statically at 37° C. Cultures were centrifuged at 4500 rpm for 10 minutes. Due to differences in pellet sizes, S. agalactiae pellets were resuspended in 1 mL Hank's Balanced Salt Solution (HBSS), and S. uberis pellets were resuspended in 400 μL HBSS in order to normalize the OD600 of the two cell suspensions. […] Paper disks containing 10 μg penicillin, 10 μg ampicillin, and 30 μg amoxicillin+clavulanic acid (Oxoid, Basingstoke, UK) were placed on the agar, then incubated for 24 h at 37° C. Plates were inspected for zones of clearance around the disks indicating susceptibility.

[4] = tested on: S. uberis Diemhofer (NCTC 3858); experiment: as above; format: cell-based, Streptococcus uberis; conditions: disks 10 μg penicillin, 10 μg ampicillin, 30 μg amoxicillin+clavulanic acid, 24 h
Method: as §2

[5] = tested on: S. aureus UAMS-1; experiment: Tunicamycin disk diffusion assay; format: cell-based, Staphylococcus aureus; conditions: 2 μg disk, 24 h
Method: Tunicamycin disk diffusion assay: S. aureus UAMS-1 cultures were prepared by inoculating separate 15-mL culture tubes containing 3 mL sterile 3% (w/v) TSB with a single colony and incubated 14-16 h at 37° C. while shaking at 250 rpm. Fresh 50-mL cultures with an initial OD600=0.025 were prepared and incubated for 2 h at 37° C. and 250 rpm. Cells were collected by centrifugation at 4,500 rpm and resuspended in 500 μL sterile Hank's Balanced Salt Solution (HBSS; Corning, Corning, NY). […] Cells were spread across the plates with sterile glass beads and the plates were left open to dry in a clean laminar-flow hood for 10-15 min. […] Three biological replicates were analyzed.

[6] = TSA with 50 mM MOPS and 5 mg/mL lignin
[7] = TSA without lignin (50 mM MOPS)
[8] = in the presence of 5 mg/mL lignin

Cc1onc(-c2ccccc2)c1C(=O)N[C@@H]1C(=O)N2[C@@H]1SC(C)(C)[C@@H]2C(=O)O [oxacillin]
susceptibility (zone of clearance around disk) [1, 6]: sensitive; also recorded: increased sensitivity/susceptibility | susceptibility (zone of clearance around disk) [1, 7]: completely resistant | susceptibility (zone of clearance around disk) [2, 6]: increased sensitivity/susceptibility | susceptibility (zone of clearance around disk) [2, 7]: sensitive/susceptible

penicillin
sensitivity (zone of clearance around disk) [3, 8]: highly sensitive | sensitivity (zone of clearance around disk) ([3]; without lignin (50 mM MOPS)): some susceptibility; also recorded: moderately sensitive | susceptibility (zone of clearance around disk) [1, 6]: increased sensitivity/susceptibility | susceptibility (zone of clearance around disk) [2, 6]: at least partially sensitive/susceptible; also recorded: increased sensitivity/susceptibility | susceptibility (zone of clearance around disk) [2, 7]: completely or nearly completely resistant; also recorded: moderately resistant | sensitivity (zone of clearance around disk) [4, 8]: highly sensitive | sensitivity (zone of clearance around disk) ([4]; without lignin (50 mM MOPS)): some susceptibility; also recorded: moderately sensitive

CC1(C)S[C@@H]2[C@H](NC(=O)[C@H](N)c3ccccc3)C(=O)N2[C@H]1C(=O)O [ampicillin]
sensitivity (zone of clearance around disk) [3, 8]: highly sensitive | sensitivity (zone of clearance around disk) ([3]; without lignin (50 mM MOPS)): some susceptibility; also recorded: moderately sensitive | susceptibility (zone of clearance around disk) [1, 6]: increased sensitivity/susceptibility | susceptibility (zone of clearance around disk) [2, 6]: at least partially sensitive/susceptible; also recorded: increased sensitivity/susceptibility | susceptibility (zone of clearance around disk) [2, 7]: completely or nearly completely resistant; also recorded: moderately resistant | sensitivity (zone of clearance around disk) [4, 8]: highly sensitive | sensitivity (zone of clearance around disk) ([4]; without lignin (50 mM MOPS)): some susceptibility; also recorded: moderately sensitive

amoxicillin+clavulanic acid
sensitivity (zone of clearance around disk) [3, 8]: highly sensitive | sensitivity (zone of clearance around disk) ([3]; without lignin (50 mM MOPS)): some susceptibility; also recorded: moderately sensitive | sensitivity (zone of clearance around disk) [4, 8]: highly sensitive | sensitivity (zone of clearance around disk) ([4]; without lignin (50 mM MOPS)): some susceptibility; also recorded: moderately sensitive

tunicamycin
zone of clearance around disk ([5]; TSA with 50 mM MOPS + 5 mg/mL lignin): susceptibility | zone of clearance around disk ([5]; TSA with 50 mM MOPS + 5 mg/mL lignin, listed as Tunicamycin): a clearance zone was observed | zone of clearance around disk ([5]; TSA with 50 mM MOPS, no lignin): tolerance of the antibiotic | zone of clearance around disk ([5]; TSA with 50 mM MOPS, no lignin, listed as Tunicamycin): No clearance zone was observed
